From patent publication EP4603105A1, “PHARMACEUTICAL COMPOSITION CONTAINING CYCLIC COMPOUND HAVING SELECTIVE KRAS INHIBITORY EFFECT AGAINST HRAS AND NRAS” (CHUGAI SEIYAKU KABUSHIKI KAISHA, priority 2022, dated 2024)

What was measured:
[1] = target: GDP-bound NRAS wild-type protein (Homo sapiens, UniProt P01111); assay: Binding to NRAS by surface plasmon resonance (SPR), KD and KD ratio to KRAS; settings: ratio of the KD value with respect to GDP-bound NRAS wild-type protein to the KD value with respect to KRAS
GDP-bound NRAS wild-type protein, sequence (P01111 whole entry): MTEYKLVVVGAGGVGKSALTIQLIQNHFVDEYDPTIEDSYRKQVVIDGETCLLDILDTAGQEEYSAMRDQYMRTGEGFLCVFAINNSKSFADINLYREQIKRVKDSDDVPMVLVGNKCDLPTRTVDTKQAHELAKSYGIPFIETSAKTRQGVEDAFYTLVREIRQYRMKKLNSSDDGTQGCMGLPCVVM
Procedure, shortened: (§1)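 Recombinant RAS proteins bearing a biotinylated Avi tag and loaded with GDP served as the captured ligand, recaptured fresh every cycle. Binding responses were referenced to an uncoated surface and a buffer-only blank cycle. Dissociation constants were obtained by 1:1 model fitting at 30°C.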

[2] = system: human lung cancer strain NCI-H441; assay type: cell-based
Procedure, shortened: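 Signal came from […] measured per well once the reagent was added. Beforehand, cells were cultured at 37°C and 5% carbon dioxide on a compound series serially diluted in dimethyl sulfoxide.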

[3] = target: GDP-bound KRAS wild-type protein (Homo sapiens, UniProt P01116); assay: Binding to KRAS by surface plasmon resonance (SPR), dissociation constant KD; settings: Single Cycle Kinetics, 1:1 binding model
GDP-bound KRAS wild-type protein, sequence (P01116 1-188 isoform P01116-2): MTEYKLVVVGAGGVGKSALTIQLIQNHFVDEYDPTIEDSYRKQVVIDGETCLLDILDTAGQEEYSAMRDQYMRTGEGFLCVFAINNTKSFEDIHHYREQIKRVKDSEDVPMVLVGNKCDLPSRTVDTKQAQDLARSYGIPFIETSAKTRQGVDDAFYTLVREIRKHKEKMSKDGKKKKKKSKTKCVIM
Procedure, shortened: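 Each cycle, GDP-bound biotin-Avi RAS was captured (~100–300 RU), compound concentrations were injected low to high for 75 s each at 100 µL/min, then the chip was regenerated. Buffer: HBS pH 7.4, 10 mM MgCl2, 10 µM GDP, 1 mM DTT, 4% DMSO; 30°C. KD from a 1:1 binding model.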

HRAS wild-type protein = HRAS wild-type protein (Homo sapiens, UniProt P01112); assay: Binding to HRAS by surface plasmon resonance (SPR), KD and KD ratio to KRAS; settings: ratio of the KD value with respect to HRAS wild-type protein to the KD value with respect to KRAS
HRAS wild-type protein, sequence (P01112 whole entry): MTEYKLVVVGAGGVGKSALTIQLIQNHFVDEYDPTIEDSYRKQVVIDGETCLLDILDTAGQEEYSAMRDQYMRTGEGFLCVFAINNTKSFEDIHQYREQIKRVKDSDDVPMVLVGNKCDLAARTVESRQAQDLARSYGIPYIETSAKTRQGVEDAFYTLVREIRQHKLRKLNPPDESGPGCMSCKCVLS
Procedure, shortened: as §1

| SMILES | IC50 [2] [nM] | Kd [3] [nM] | NRAS /KRAS [1] | HRAS /KRAS (HRAS wild-type protein) |
| --- | --- | --- | --- | --- |
| CC[C@H](C)[C@@H]1NC(=O)[C@H](CC(C)C)N(C)C(=O)C[C@@H](C(=O)N2CCOCC2)N(C)C(=O)[C@H](C2CCCC2)N(C)C(=O)C2(CCCC2)NC(=O)[C@@H]2CCCN2C(=O)[C@H](CCc2ccc(C(F)(F)F)c(Cl)c2)NC(=O)CN(C)C(=O)[C@H](Cc2ccc(OC)cc2)N2C/C=C\CC[C@@H](C2=O)N(C)C(=O)CN(C)C1=O [PP0609] | 468 | 3.9 | B (a compound having 3 or more and less than 10 is denoted as B) | B (a compound having 3 or more and less than 10 is denoted as B) |
| CC[C@H](C)[C@@H]1NC(=O)[C@H](CC(C)C)N(C)C(=O)C[C@@H](C(=O)N2CCOCC2)N(C)C(=O)[C@H](C2CCCC2)N(C)C(=O)C2(CCCC2)NC(=O)[C@@H]2CCCN2C(=O)[C@H](CCc2ccc(C(F)(F)F)c(Cl)c2)NC(=O)CN(C)C(=O)[C@H](Cc2ccccc2)N2CCCCC[C@@H](C2=O)N(C)C(=O)CN(C)C1=O [PP0611] | 88.9 | 0.73 | B (a compound having 3 or more and less than 10 is denoted as B) | B (a compound having 3 or more and less than 10 is denoted as B) |
| CC[C@H](C)[C@@H]1NC(=O)[C@H](CC(C)C)N(C)C(=O)C[C@@H](C(=O)N(C)C)N(C)C(=O)[C@H](C2CCCC2)N(C)C(=O)C2(CCCC2)NC(=O)[C@@H]2CCCN2C(=O)[C@H](CCc2ccc(C(F)(F)F)c(Cl)c2)NC(=O)CN(C)C(=O)[C@H](Cc2ccc(C)cc2)N2CC=C(C)C[C@@H](C2=O)N(C)C(=O)CN(C)C1=O [PP0620] | 38.4 | 0.69 | C (A compound having a KD ratio of 0.1 or more and less than 3 is denoted as C) | C (A compound having a KD ratio of 0.1 or more and less than 3 is denoted as C) |
| CC[C@H](C)[C@@H]1NC(=O)[C@H](CC(C)C)N(C)C(=O)C[C@@H](C(=O)N(C)C)N(C)C(=O)[C@H](C2CCCC2)N(C)C(=O)C2(CCCC2)NC(=O)[C@@H]2CCCN2C(=O)[C@H](CCc2ccc(C(F)(F)F)c(Cl)c2)NC(=O)CN(C)C(=O)[C@H](Cc2ccc(C)cc2)N2CC=CCOC[C@H](C2=O)N(C)C(=O)CN(C)C1=O [PP0629] | 45.1 | 2.4 | B (a compound having 3 or more and less than 10 is denoted as B) | C (A compound having a KD ratio of 0.1 or more and less than 3 is denoted as C) |
| CCO[C@@H]1C[C@H]2C(=O)NC3(CCC3)C(=O)N(C)[C@@H](C3CCCC3)C(=O)N(CCc3ccccc3)[C@H](C(=O)N3CCOCC3)CC(=O)N(C)[C@@H](CC(C)C)C(=O)N[C@@H]([C@@H](C)CC)C(=O)N(C)CC(=O)N(C)[C@H]3CCCCCN(C3=O)[C@@H](Cc3ccc(C(F)(F)F)cc3)C(=O)N(C)CC(=O)N[C@@H](CCc3cc(F)c(C(F)(F)F)c(F)c3)C(=O)N2C1 [PP0642] | 2650 | 110 | B (a compound having 3 or more and less than 10 is denoted as B) | B (a compound having 3 or more and less than 10 is denoted as B) |
| CCO[C@@H]1C[C@H]2C(=O)NC3(CCC3)C(=O)N(C)[C@@H](C3CCCC3)C(=O)N(C)[C@H](C(=O)N(C)C)CC(=O)N(C)[C@@H](CC(C)(C)C)C(=O)N[C@@H]([C@@H](C)CC)C(=O)N(C)CC(=O)N(C)[C@H]3CCCCCN(C3=O)[C@@H](Cc3ccc(C(F)(F)F)cc3)C(=O)N(C)CC(=O)N[C@@H](CCc3cc(F)c(C(F)(F)F)c(F)c3)C(=O)N2C1 [PP0669] | 20.3 | 0.52 | B (a compound having 3 or more and less than 10 is denoted as B) | B (a compound having 3 or more and less than 10 is denoted as B) |
| CCO[C@@H]1C[C@H]2C(=O)NC3(CCC3)C(=O)N(C)[C@@H](C3CCCC3)C(=O)N(C)[C@H](C(=O)N(C)C)CC(=O)N(C)[C@@H](CC3CCCC3)C(=O)N[C@@H]([C@@H](C)CC)C(=O)N(C)CC(=O)N(C)[C@H]3CCCCCN(C3=O)[C@@H](Cc3ccc(C(F)(F)F)cc3)C(=O)N(C)CC(=O)N[C@@H](CCc3cc(F)c(C(F)(F)F)c(F)c3)C(=O)N2C1 [PP0670] | 11.3 | 0.28 | B (a compound having 3 or more and less than 10 is denoted as B) | B (a compound having 3 or more and less than 10 is denoted as B) |

The next lines start with results.

| IC50 [2] [nM] | Kd [3] [nM] | SMILES | NRAS /KRAS [1] | HRAS /KRAS (HRAS wild-type protein) |
| --- | --- | --- | --- | --- |
| 46.3 | 2.4 | CC[C@H](C)[C@@H]1NC(=O)[C@H](CC(C)C)N(C)C(=O)C[C@@H](C(=O)N(C)C)N(C)C(=O)[C@H](C2CCCC2)N(C)C(=O)C2(CCCC2)NC(=O)[C@@H]2CCCN2C(=O)[C@H](CCc2ccc(C(F)(F)F)c(Cl)c2)NC(=O)CN(C)C(=O)[C@H](Cc2ccc(C(F)(F)F)cc2)N2CC=CCOC[C@H](C2=O)N(C)C(=O)CN(C)C1=O [PP0628] | C (A compound having a KD ratio of 0.1 or more and less than 3 is denoted as C) | C (A compound having a KD ratio of 0.1 or more and less than 3 is denoted as C) |
| 341 | 3.4 | CCO[C@@H]1C[C@H]2C(=O)NC3(CCC3)C(=O)N(C)[C@@H](C3CCCC3)C(=O)N(CC)[C@H](C(=O)N3CCOCC3)CC(=O)N(C)[C@@H](CC(C)C)C(=O)N[C@@H]([C@@H](C)CC)C(=O)N(C)CC(=O)N(C)[C@H]3CCCCCN(C3=O)[C@@H](Cc3ccc(C(F)(F)F)cc3)C(=O)N(C)CC(=O)N[C@@H](CCc3cc(F)c(C(F)(F)F)c(F)c3)C(=O)N2C1 [PP0638] | B (a compound having 3 or more and less than 10 is denoted as B) | B (a compound having 3 or more and less than 10 is denoted as B) |
| > 600 | 20 | CCO[C@@H]1C[C@H]2C(=O)NC3(CCC3)C(=O)N(C)[C@@H](C3CCCC3)C(=O)N(CCC3CCC3)[C@H](C(=O)N3CCOCC3)CC(=O)N(C)[C@@H](CC(C)C)C(=O)N[C@@H]([C@@H](C)CC)C(=O)N(C)CC(=O)N(C)[C@H]3CCCCCN(C3=O)[C@@H](Cc3ccc(C(F)(F)F)cc3)C(=O)N(C)CC(=O)N[C@@H](CCc3cc(F)c(C(F)(F)F)c(F)c3)C(=O)N2C1 [PP0640] | B (a compound having 3 or more and less than 10 is denoted as B) | B (a compound having 3 or more and less than 10 is denoted as B) |
| > 1300 | 26 | CCO[C@@H]1C[C@H]2C(=O)NC3(CCC3)C(=O)N(C)[C@@H](C3CCCC3)C(=O)N(CCC3CCCC3)[C@H](C(=O)N3CCOCC3)CC(=O)N(C)[C@@H](CC(C)C)C(=O)N[C@@H]([C@@H](C)CC)C(=O)N(C)CC(=O)N(C)[C@H]3CCCCCN(C3=O)[C@@H](Cc3ccc(C(F)(F)F)cc3)C(=O)N(C)CC(=O)N[C@@H](CCc3cc(F)c(C(F)(F)F)c(F)c3)C(=O)N2C1 [PP0641] | A (a compound having 10 or more and less than 20 is denoted as A) | A (a compound having 10 or more and less than 20 is denoted as A) |
| 20.7 | 0.15 | CCCN1C(=O)[C@H](C2CCCC2)N(C)C(=O)C2(CCC2)NC(=O)[C@@H]2C[C@@H](OCC)CN2C(=O)[C@H](CCc2cc(F)c(C(F)(F)F)c(F)c2)NC(=O)CN(C)C(=O)[C@H](Cc2ccc(C(F)(F)F)cc2)N2CCCC[C@@H](C2=O)N(C)C(=O)CN(C)C(=O)[C@H]([C@@H](C)CC)NC(=O)[C@H](CC)N(C)C(=O)C[C@H]1C(=O)N(C)C [PP0644] | C (A compound having a KD ratio of 0.1 or more and less than 3 is denoted as C) | B (a compound having 3 or more and less than 10 is denoted as B) |
| 690 | 2 | CC[C@H](C)[C@@H]1NC(=O)[C@H](CC)N(C)C(=O)C[C@@H](C(=O)N(C)C)N(C)C(=O)[C@H](C2CCCC2)N(C)C(=O)C2(CCC2)NC(=O)[C@@H]2CCN2C(=O)[C@H](CCc2cc(F)c(C(F)(F)F)c(F)c2)NC(=O)CN(C)C(=O)[C@H](Cc2ccc(C(F)(F)F)cc2)N2CCCCC[C@@H](C2=O)N(C)C(=O)CN(C)C1=O [PP0654] | B (a compound having 3 or more and less than 10 is denoted as B) | B (a compound having 3 or more and less than 10 is denoted as B) |
| 32.5 | 0.67 | CCO[C@@H]1C[C@H]2C(=O)NC3(CCC3)C(=O)N(C)[C@@H](C3CCCC3)C(=O)N(C)[C@H](C(=O)N(C)C)CC(=O)N(C)[C@@H](CC3CCCCC3)C(=O)N[C@@H]([C@@H](C)CC)C(=O)N(C)CC(=O)N(C)[C@H]3CCCCCN(C3=O)[C@@H](Cc3ccc(C(F)(F)F)cc3)C(=O)N(C)CC(=O)N[C@@H](CCc3cc(F)c(C(F)(F)F)c(F)c3)C(=O)N2C1 [PP0671] | B (a compound having 3 or more and less than 10 is denoted as B) | B (a compound having 3 or more and less than 10 is denoted as B) |
